Drawing on ChEMBL document CHEMBL1800032, “Allosteric and ATP-competitive kinase inhibitors of mTOR for cancer treatment” (Bioorg Med Chem Lett, 2010), this text covers IC50 for one molecule.

Structures are written as SMILES. pIC50: −log10 of the molar value.

By pIC50 is commonly meant the IC50 on a negative log10 scale, so that one unit is a factor of ten.

The test deals with Serine/threonine-protein kinase mTOR (Homo sapiens, UniProt P42345). In words: Inhibition of recombinant mTOR assessed as inhibition of S6K T389 phosphorylation by DELFIA assay.

With `COC(=O)Nc1ccc(-c2nc(N3CCOCC3)c3cnn(C4CCN(C(=O)OC)CC4)c3n2)cc1`, the pIC50 is 8.30.
